Source: patent US20060100235A1, “Pharmaceutical use of substituted 1,2,4-triazoles” (Novo Nordisk A/S, priority 2003, published 2006)

Target: T1, h-11βHSD1 (Homo sapiens, UniProt P28845)
T1 construct: made in house
Test: 11βHSD1 enzyme assay (scintillation proximity assay)
Type: biochemical
Conditions: extract of yeast transformed with h-11βHSD1; 120 nM 3H-cortisone, 4 mM β-NADPH; 60 min at 30° C.
Experimental: Pharmacological Methods 11βHSD1 enzyme assay Materials
^3H-cortisone and anti-rabbit Ig coated scintillation proximity assay (SPA) beads were purchased from Amersham Pharmacia Biotech, β-NADPH was from Sigma and rabbit anticortisol antibodies were from Fitzgerald. An extract of yeast transformed with h-11βHSD1 (Hult et al., FEBS Lett, 441, 25 (1998)) was used as the source of enzyme. The test compounds were dissolved in DMSO (10 mM). All dilutions were performed in a buffer containing 50 mM TRIS-HCl (Sigma Chemical Co), 4 mM EDTA (Sigma Chemical Co), 0.1% BSA (Sigma Chemical Co), 0.01% Tween-20 (Sigma Chemical Co) and 0.005% bacitracin (Novo Nordisk A/S), pH=7.4. Optiplate 96 wells plates were supplied by Packard. The amount of ^3H-cortisol bound to the SPA beads was measured on TopCount NXT, Packard.
h-11βHSD1, 120 nM ^3H-cortisone, 4 mM β-NADPH, antibody (1:200), serial dilutions of test compound and SPA particles (2 mg/well) were added to the wells. The reaction was initiated by mixing the different components and was allowed to proceed under shaking for 60 min at 30° C. […] Data was analysed using GraphPad Prism software.

T1 sequence (P28845 whole entry): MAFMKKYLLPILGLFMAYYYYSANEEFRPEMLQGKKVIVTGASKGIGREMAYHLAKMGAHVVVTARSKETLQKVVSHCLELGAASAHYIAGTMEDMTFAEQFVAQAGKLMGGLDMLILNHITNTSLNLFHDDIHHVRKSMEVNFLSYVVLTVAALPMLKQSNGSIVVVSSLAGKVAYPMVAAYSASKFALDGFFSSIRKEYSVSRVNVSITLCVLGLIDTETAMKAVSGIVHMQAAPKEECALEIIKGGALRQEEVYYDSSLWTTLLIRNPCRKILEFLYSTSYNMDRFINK

CCn1c(SCC(=O)N2CCCc3ccccc32)nnc1-c1ccccc1Br [Comp A, 2-[5-(2-Bromo-phenyl)-4-ethyl-4H-[1,2,4]triazol-3-ylsulfanyl]-1-(3,4-dihydro-2H-quinolin-1-yl)-ethanone] showed an IC50 of 0.16 µM.

Cn1c(SCC(=O)c2ccccc2)nnc1C1CCCCC1 [Comp B, 2-(5-Cyclohexyl-4-methyl-4H-[1,2,4]triazol-3-ylsulfanyl)-1-phenyl-ethanone] showed an IC50 of 0.19 µM.
